This is an account of results in paper PMC5862892, “Near-native, site-specific and purification-free protein labeling for quantitative protein interaction analysis by MicroScale Thermophoresis” (Scientific Reports, 2018).

Assay [1] deals with His-tag. More on the design: method as in PMID 16028931. Conditions: read-out: molecular binding affinity of Ni(II)-NTA for His-tag; cited from earlier work.
Assay [2] relates to mNeonGreen-His6. Kind of assay: MST: mNeonGreen-His6 negative control against SB203580 in HeLa cell lysate. In kind it is binding.
Assay [3] addresses pUL50 (Human cytomegalovirus) (UniProt P16791). The experiment in a line: ITC. Conditions: cited from earlier work.

Entries after “also recorded” stand apart in the source; their conditions may differ.

Chain of UniProt P16791 (P16791 whole entry): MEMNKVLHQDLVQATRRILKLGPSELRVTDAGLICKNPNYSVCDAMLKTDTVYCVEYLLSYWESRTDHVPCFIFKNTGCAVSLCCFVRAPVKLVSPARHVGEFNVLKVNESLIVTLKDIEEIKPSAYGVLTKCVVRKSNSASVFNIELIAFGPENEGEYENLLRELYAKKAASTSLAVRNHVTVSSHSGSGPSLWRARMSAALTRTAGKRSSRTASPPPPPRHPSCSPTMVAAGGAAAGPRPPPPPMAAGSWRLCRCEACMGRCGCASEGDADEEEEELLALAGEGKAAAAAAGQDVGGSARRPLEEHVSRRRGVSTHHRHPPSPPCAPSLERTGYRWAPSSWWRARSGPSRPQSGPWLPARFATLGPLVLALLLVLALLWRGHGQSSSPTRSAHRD

As for `O=C(O)CN(CC(=O)O)CC(=O)O` [NTA, nitrilotriacetic acid], the Kd in assay [1] is roughly 10 µM. On to `C[S+]([O-])c1ccc(-c2nc(-c3ccncc3)c(-c3ccc(F)cc3)[nH]2)cc1` (stereo not drawn) [SB203580], for which the “binding to RED-tris-NTA labeled mNeonGreen-His6 (p38α-free negative control)” value in assay [2] is listed as “no binding could be detected; also recorded: did not yield a binding curve”. As for pUL53 (from UniProt P16794), the Kd in assay [3] is 0.29 µM.
